Some results are limits rather than exact numbers.

What is called Ki is a measure of affinity in units of concentration, obtained from inhibition or displacement.

This assay concerns the target T1, human PTHR1 receptor (Homo sapiens, UniProt Q03431).
T1 construct: purchased Eurofins HTS030M
T1 sequence (Q03431 27-593): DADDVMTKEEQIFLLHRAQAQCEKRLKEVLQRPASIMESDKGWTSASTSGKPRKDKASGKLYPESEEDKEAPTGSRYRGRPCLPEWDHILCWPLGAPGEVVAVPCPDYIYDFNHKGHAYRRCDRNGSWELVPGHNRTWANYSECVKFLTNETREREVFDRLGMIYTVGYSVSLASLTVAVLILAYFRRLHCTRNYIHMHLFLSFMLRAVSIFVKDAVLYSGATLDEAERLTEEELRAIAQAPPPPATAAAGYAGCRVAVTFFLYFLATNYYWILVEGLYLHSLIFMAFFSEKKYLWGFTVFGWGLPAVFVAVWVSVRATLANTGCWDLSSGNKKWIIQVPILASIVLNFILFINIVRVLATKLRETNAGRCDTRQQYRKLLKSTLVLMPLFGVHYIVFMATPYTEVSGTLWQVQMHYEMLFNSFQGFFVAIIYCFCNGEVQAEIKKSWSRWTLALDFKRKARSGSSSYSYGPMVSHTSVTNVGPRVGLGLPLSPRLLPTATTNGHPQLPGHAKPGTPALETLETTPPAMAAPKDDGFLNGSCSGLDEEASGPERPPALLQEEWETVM
The experiment in a line: Competitive antagonist binding assay for hPTH-R1 (radioactive competition binding, SPA beads). Particulars: human PTHR1 membranes, [125I]-[Nle8,18,Tyr34]-PTH(1-34) 0.2 nM, 90 minutes at room temperature; read-out: hPTHR1 Ki. The method, boiled down: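 Displacement of 0.2 nM radioiodinated [Nle8,18,Tyr34]-PTH(1-34) from membrane-bound human PTHR1 measured by scintillation proximity after 90 min at room temperature. Compounds typically 0-10,000 nM final, pH 7.4 HEPES/Mg/Ca buffer with BSA and detergent. Ki calculated from competition data.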

In the case of `CCN1C(=O)N(c2c(F)cc(NCCNCCO)cc2F)c2cc(Cl)cc(C)c2-c2cc(Cl)cnc21` [1-51, 4,13-dichloro-10-[2,6-difluoro-4-({2-[(2-hydroxyethyl)amino]ethyl}amino)phenyl]-8-ethyl-15-methyl-6,8,10-triazatricyclo[9.4.0.0^2,7]pentadeca-1(11),2(7),3,5,12,14-hexaen-9-one], the Ki was less than 100 nM. Under `O=C1N(CC2CC2)c2ncc(Cl)cc2-c2ccc(Cl)cc2N1c1c(F)cc(NCCNCCO)cc1F` [1-52, 4,13-dichloro-8-(cyclopropylmethyl)-10-[2,6-difluoro-4-({2-[(2-hydroxyethyl)amino]ethyl}amino)phenyl]-6,8,10-triazatricyclo[9.4.0.0^2,7]pentadeca-1(11),2(7),3,5,12,14-hexaen-9-one] stands less than 100 nM.

Take `CCOC(=O)CCCNc1cc(F)c(N2C(=O)N(CC)c3ncc(Cl)cc3-c3ccc(Cl)cc32)c(F)c1` [1-53, ethyl 4-[(4-{4,13-dichloro-8-ethyl-9-oxo-6,8,10-triazatricyclo[9.4.0.0^2,7]pentadeca-1(11),2(7),3,5,12,14-hexaen-10-yl}-3,5-difluorophenyl)amino]butanoate]: the inhibitory constant (Ki) fell in the range of 1000 to 10000 nM. With `CCN1C(=O)N(c2c(F)cc(NCCNC)cc2F)c2cc(C#N)ccc2-c2cc(Cl)cnc21` [1-54, 4-chloro-10-(2,6-difluoro-4-{[2-(methylamino)ethyl]amino}phenyl)-8-ethyl-9-oxo-6,8,10-triazatricyclo[9.4.0.0^2,7]pentadeca-1(11),2(7),3,5,12,14-hexaene-13-carbonitrile], the Ki is less than 100 nM. The same measure for `CCN1C(=O)N(c2c(F)cc(NCCNCCO)cc2F)c2cc(C#N)ccc2-c2cc(Cl)cnc21` [1-55, 4-chloro-10-[2,6-difluoro-4-({2-[(2-hydroxyethyl)amino]ethyl}amino)phenyl]-8-ethyl-9-oxo-6,8,10-triazatricyclo[9.4.0.0^2,7]pentadeca-1(11),2(7),3,5,12,14-hexaene-13-carbonitrile]: less than 100 nM; for `CCN1C(=O)N(c2c(F)cc(NCCNCCO)cc2F)c2cc(Cl)ccc2-c2cc(C(F)(F)F)cnc21` [1-56, 13-chloro-10-[2,6-difluoro-4-({2-[(2-hydroxyethyl)amino]ethyl}amino)phenyl]-8-ethyl-4-(trifluoromethyl)-6,8,10-triazatricyclo[9.4.0.0^2,7]pentadeca-1(11),2(7),3,5,12,14-hexaen-9-one]: less than 100 nM; for `CCN1C(=O)N(c2c(F)cc(NCCNC)cc2F)c2cc(Cl)ccc2-c2cc(C(F)(F)F)cnc21` [1-57, 13-chloro-10-(2,6-difluoro-4-{[2-(methylamino)ethyl]amino}phenyl)-8-ethyl-4-(trifluoromethyl)-6,8,10-triazatricyclo[9.4.0.0^2,7]pentadeca-1(11),2(7),3,5,12,14-hexaen-9-one]: less than 100 nM. As for `CCN1C(=O)N(c2c(F)cc(NCCNCCCC(=O)O)cc2F)c2cc(C#N)ccc2-c2cc(Cl)cnc21` [1-58, 4-({2-[(4-{4-chloro-13-cyano-8-ethyl-9-oxo-6,8,10-triazatricyclo[9.4.0.0^2,7]pentadeca-1(11),2(7),3,5,12,14-hexaen-10-yl}-3,5-difluorophenyl)amino]ethyl}amino)butanoic Acid], the Ki was less than 100 nM. Under `CCN1C(=O)N(c2c(F)cc(NCCNCCF)cc2F)c2cc(Cl)ccc2-c2cc(Cl)cnc21` [1-59, 4,13-dichloro-10-[2,6-difluoro-4-({2-[(2-fluoroethyl)amino]ethyl}amino)phenyl]-8-ethyl-6,8,10-triazatricyclo[9.4.0.0^2,7]pentadeca-1(11),2(7),3,5,12,14-hexaen-9-one] stands less than 100 nM; under `CCN1C(=O)N(c2c(F)cc(NCCNCCO)cc2F)c2cc(Cl)cc(F)c2-c2cc(Cl)cnc21` [1-60, 4,13-dichloro-10-[2,6-difluoro-4-({2-[(2-hydroxyethyl)amino]ethyl}amino)phenyl]-8-ethyl-15-fluoro-6,8,10-triazatricyclo[9.4.0.0^2,7]pentadeca-1(11),2(7),3,5,12,14-hexaen-9-one], less than 100 nM. Regarding `CCN1C(=O)N(c2c(F)cc(NCCNC)cc2F)c2cc(Cl)cc(F)c2-c2cc(Cl)cnc21` [1-61, 4,13-dichloro-10-(2,6-difluoro-4-{[2-(methylamino)ethyl]amino}phenyl)-8-ethyl-15-fluoro-6,8,10-triazatricyclo[9.4.0.0^2,7]pentadeca-1(11),2(7),3,5,12,14-hexaen-9-one], the Ki is less than 100 nM. Turning to `CCN1C(=O)N(c2c(F)cc(NCCNC)cc2F)c2cc(C#N)cc(C)c2-c2cc(F)cnc21` [1-62, 10-(2,6-difluoro-4-{[2-(methylamino)ethyl]amino}phenyl)-8-ethyl-4-fluoro-15-methyl-9-oxo-6,8,10-triazatricyclo[9.4.0.0^2,7]pentadeca-1(11),2(7),3,5,12,14-hexaene-13-carbonitrile], the Ki is less than 100 nM.

Take `CCN1C(=O)N(c2c(F)cc(NCCNCCO)cc2F)c2cc(C#N)cc(C)c2-c2cc(F)cnc21` [1-63, 10-[2,6-difluoro-4-({2-[(2-hydroxyethyl)amino]ethyl}amino)phenyl]-8-ethyl-4-fluoro-15-methyl-9-oxo-6,8,10-triazatricyclo[9.4.0.0^2,7]pentadeca-1(11),2(7),3,5,12,14-hexaene-13-carbonitrile]: the Ki is less than 100 nM.

As for `CCN1C(=O)N(c2c(F)cc(NCCNCCCC(=O)O)cc2F)c2cc(Cl)cc(C)c2-c2cc(F)cnc21` [1-64, 4-({2-[(4-{13-chloro-8-ethyl-4-fluoro-15-methyl-9-oxo-6,8,10-triazatricyclo[9.4.0.0^2,7]pentadeca-1(11),2(7),3,5,12,14-hexaen-10-yl}-3,5-difluorophenyl)amino]ethyl}amino)butanoic acid], the Ki is less than 100 nM. Take `CCN1C(=O)N(c2c(F)cc(N3CC[C@@H](N)C3)cc2F)c2cc(Cl)cc(C)c2-c2cc(F)cnc21` [1-65, 10-{4-[(3R)-3-aminopyrrolidin-1-yl]-2,6-difluorophenyl}-13-chloro-8-ethyl-4-fluoro-15-methyl-6,8,10-triazatricyclo[9.4.0.0^2,7]pentadeca-1(11),2(7),3,5,12,14-hexaen-9-one]: the Ki is less than 100 nM. Under `CCN1C(=O)N(c2c(F)cc(NCCNC)cc2F)c2cc(C(F)(F)F)ccc2-c2cc(F)cnc21` [1-66, 10-(2,6-difluoro-4-{[2-(methylamino)ethyl]amino}phenyl)-8-ethyl-4-fluoro-13-(trifluoromethyl)-6,8,10-triazatricyclo[9.4.0.0^2,7]pentadeca-1(11),2(7),3,5,12,14-hexaen-9-one] stands less than 100 nM; under `CCN1C(=O)N(c2c(F)cc(NCCNCCO)cc2F)c2cc(C(F)(F)F)ccc2-c2cc(F)cnc21` [1-67, 10-[2,6-difluoro-4-({2-[(2-hydroxyethyl)amino]ethyl}amino)phenyl]-8-ethyl-4-fluoro-13-(trifluoromethyl)-6,8,10-triazatricyclo[9.4.0.0^2,7]pentadeca-1(11),2(7),3,5,12,14-hexaen-9-one], less than 100 nM; under `CCN1C(=O)N(c2c(F)cc(NCCNCCCC(=O)O)cc2F)c2cc(C#N)cc(C)c2-c2cc(F)cnc21` [1-68, 4-({2-[(4-{13-cyano-8-ethyl-4-fluoro-15-methyl-9-oxo-6,8,10-triazatricyclo[9.4.0.0^2,7]pentadeca-1(11),2(7),3,5,12,14-hexaen-10-yl}-3,5-difluorophenyl)amino]ethyl}amino)butanoic acid], less than 100 nM.

Take `CCN1C(=O)N(c2c(F)cc(NCCNCCCC(=O)O)cc2F)c2cc(C(F)(F)F)ccc2-c2cc(F)cnc21` [1-69, 4-{[2-({4-[8-ethyl-4-fluoro-9-oxo-13-(trifluoromethyl)-6,8,10-triazatricyclo[9.4.0.0^2,7]pentadeca-1(11),2(7),3,5,12,14-hexaen-10-yl]-3,5-difluorophenyl}amino)ethyl]amino}butanoic acid]: the Ki was less than 100 nM. Consider `CCN1C(=O)N(c2c(F)cc(NCCN(C)CCCC(=O)O)cc2F)c2cc(Cl)ccc2-c2cc(Cl)cnc21` [1-70, 4-({2-[(4-{4,13-dichloro-8-ethyl-9-oxo-6,8,10-triazatricyclo[9.4.0.0^2,7]pentadeca-1(11),2(7),3,5,12,14-hexaen-10-yl}-3,5-difluorophenyl)amino]ethyl}(methyl)amino)butanoic acid], for which the Ki is less than 100 nM. Under `CCN1C(=O)N(c2c(F)cc(N[C@@H](C)CNCCO)cc2F)c2cc(Cl)ccc2-c2cc(Cl)cnc21` [1-71, 4,13-dichloro-10-(2,6-difluoro-4-{[(2S)-1-[(2-hydroxyethyl)amino]propan-2-yl]amino}phenyl)-8-ethyl-6,8,10-triazatricyclo[9.4.0.0^2,7]pentadeca-1(11),2(7),3,5,12,14-hexaen-9-one] stands less than 100 nM; under `CCN1C(=O)N(c2c(F)cc(NCCNCCC(=O)O)cc2F)c2cc(Cl)ccc2-c2cc(Cl)cnc21` [1-72, 3-({2-[(4-{4,13-dichloro-8-ethyl-9-oxo-6,8,10-triazatricyclo[9.4.0.0^2,7]pentadeca-1(11),2(7),3,5,12,14-hexaen-10-yl}-3,5-difluorophenyl)amino]ethyl}amino)propanoic acid], less than 100 nM.

These data come from patent publication US20230159532A1, “PARATHYROID HORMONE (PTH) RECEPTOR ANTAGONISTS AND USES THEREOF” (Crinetics Pharmaceuticals, Inc., priority 2021, published 2023).
